Like-named read-outs stand apart in the source and are kept apart here.
Assays:
FIP1L1-PDGFRα wild type = molecular target: T1, FIP1L1-PDGFRα wild type (Homo sapiens, UniProt P16234); test: Bone marrow transplant model of FIP1L1-PDGFRα-induced myeloproliferative disease; assay type: in vivo, Balb/c mice; conditions: at time of death or trial endpoint
T1 construct: FIP1L1 (N-terminal part of FIP1-like 1, Q6UN15); expressed in transfected cells; host or cells: Bone marrow cells retrovirally transduced with MSCV-FIP1L1-PDGFRα-ires-EGFP and transplanted into Balb/c mice; the other entry of the earlier key: FIP1L1 (Q6UN15, Pre-mRNA 3'-end-processing factor FIP1)
T1 sequence (P16234 593-1089 limits assumed): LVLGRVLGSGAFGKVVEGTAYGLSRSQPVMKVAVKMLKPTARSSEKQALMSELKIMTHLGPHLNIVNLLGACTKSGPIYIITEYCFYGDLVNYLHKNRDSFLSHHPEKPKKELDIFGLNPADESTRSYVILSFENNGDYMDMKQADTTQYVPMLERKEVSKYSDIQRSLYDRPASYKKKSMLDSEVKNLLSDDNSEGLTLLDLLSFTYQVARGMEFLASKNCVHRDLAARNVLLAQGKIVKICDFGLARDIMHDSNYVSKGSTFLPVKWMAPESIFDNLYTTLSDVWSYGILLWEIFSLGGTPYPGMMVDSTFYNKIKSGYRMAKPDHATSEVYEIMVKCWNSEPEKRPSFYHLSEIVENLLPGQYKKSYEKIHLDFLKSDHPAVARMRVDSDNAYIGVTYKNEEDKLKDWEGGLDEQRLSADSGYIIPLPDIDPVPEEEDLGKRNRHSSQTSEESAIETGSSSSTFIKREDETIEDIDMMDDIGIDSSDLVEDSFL
Experimental: (§1) The retroviral construct MSCV-FIP1L1-PDGFRα-ires-EGFP and the corresponding T674I mutant were described previously (Cools et al., New England Journal of Medicine Vol. 348 No. 13, p 1201-1214 2003). The N659D mutation was introduced by PCR (polymerase chain reaction).
(§2) Balb/c mice were purchased from Taconic (Germantown, N.Y.). Bone marrow transplant assays (injecting 1×10^6 cells per recipient mouse) and drug treatment of the mice was performed as described previously (Schwaller et al., 1998; Kelly et al.; Weisberg et al., 2002). Imatinib (stored as powder at 4° C.) was resuspended in a 0.5% methylcellulose (MC) solution in water prior to use. PKC412 (6% w/w in Gelucire® 44/14 (GC) (Gattefosse,France)) was stored at 4° C. as a waxy-solid formulation. Prior to administration, the GC/PKC412 waxy solid mixture was melted in a 44° C. water bath and diluted with sterilized deionized water. The animals were weighed at regular basis to ensure that a consistent dose (150 mg/kg/day for imatinib and 100 mg/kg/day for PKC412) of drug was administered. Dosing was performed every 12 hr for imatinib and every 24 hr for PKC412 by oral gavage of a maximum volume of 150 μl per animal using 22 gauge gavage needles (Hornbecks). Placebo animals received the same volume of a MC or GC solution. Any animals with splenomegaly (spleen boundary detectable at the dorsal medline) or that were moribund were sacrificed and analysed for signs of hematological disease. Peripheral blood was collected from the retroorbital cavity using a heparinized glass capillary. Blood smears were stained with Wright and Giemsa. Manual and automated (ADIVA 120 Hematology system, Bayer) total and differential blood cell counts were performed. Histopathologic exam of relevant organs (spleen, liver, heart, lungs, Intestine, hindlimb bones, and kidneys) and preparation of single-cell suspensions from spleen and bone marrow for flow cytometry was performed as described. In comparing the survival time of the mice, all times are measured from the day of BMT (bone marrow transplant), and the log rank test is used to attach a significance level to the difference in the survival curve.

FIP1L1-PDGFRαT674I = assay type: in vivo, Balb/c mice; conditions: at time of death or trial endpoint
Experimental: as §1, §2

[1] = trial 1, FIP1L1-PDGFRα wild type, imatinib 150 mg/kg/day oral gavage
[2] = trial 2, FIP1L1-PDGFRα, imatinib 150 mg/kg/day, PKC412 100 mg/kg/day, oral gavage
[3] = trial 1, FIP1L1-PDGFRαT674I, imatinib 150 mg/kg/day oral gavage
[4] = trial 2, FIP1L1-PDGFRα T674I, imatinib 150 mg/kg/day, PKC412 100 mg/kg/day, oral gavage

Cc1ccc(NC(=O)c2ccc(CN3CCN(C)CC3)cc2)cc1Nc1nccc(-c2cccnc2)n1 [imatinib]
WBC, mean (FIP1L1-PDGFRα wild type; [1]): 6e+06 mL⁻¹
WBC, median (FIP1L1-PDGFRα wild type; [1]): 5.2e+06 mL⁻¹
WBC, range (FIP1L1-PDGFRα wild type; [1]): 4.6-9.4 ×10^6/ml
WBC, mean (FIP1L1-PDGFRα wild type; [2]): 4.8e+06 mL⁻¹
WBC, median (FIP1L1-PDGFRα wild type; [2]): 4.8e+06 mL⁻¹
WBC, range (FIP1L1-PDGFRα wild type; [2]): 4.4-5.3 ×10^6/ml
WBC, mean (FIP1L1-PDGFRαT674I; [3]): 4.965e+08 mL⁻¹
WBC, median (FIP1L1-PDGFRαT674I; [3]): 5.077e+08 mL⁻¹
WBC, range (FIP1L1-PDGFRαT674I; [3]): 434.6-535.8 ×10^6/ml
WBC, mean (FIP1L1-PDGFRαT674I; [4]): 5.482e+08 mL⁻¹
WBC, median (FIP1L1-PDGFRαT674I; [4]): 5.915e+08 mL⁻¹
WBC, range (FIP1L1-PDGFRαT674I; [4]): 364.9-657.6 ×10^6/ml

— patent publication US20060229290A1, “Staurosporine derivatives for hypereosinophilic syndrome” (priority 2003, published 2006)
